Assay results reported in patent US8329908B2, “Dual action antibiotics” (Morphochem Aktiengesellschaft fur Kombinatorische Chemie, priority 2001, dated 2012).

Key:
E. faecium = experiment: MIC against E. faecium; format: cell-based
Procedure: (§1) All examples were tested against several gram positive and gram negative bacteria. They all have a broader and more pronounced activity than the corresponding quinolone and oxazolidinone as well as a 1+1 combination of these two compounds.

E. faecalis = experiment: MIC against E. faecalis; format: cell-based
Procedure: as §1

S. aureus (MSSA) = experiment: MIC against S. aureus (MSSA); format: cell-based
Procedure: as §1

S. aureus (MRSA) = experiment: MIC against S. aureus (MRSA); format: cell-based
Procedure: as §1

S. pneumoniae = experiment: MIC against S. pneumoniae; format: cell-based
Procedure: as §1

| SMILES | melting point | Typical MIC range (E. faecium) [µg/mL] | Typical MIC range (E. faecalis) [µg/mL] | Typical MIC range (S. aureus (MSSA)) [µg/mL] | Typical MIC range (S. aureus (MRSA)) [µg/mL] | Typical MIC range (S. pneumoniae) [µg/mL] |
| --- | --- | --- | --- | --- | --- | --- |
| CC(=O)NC[C@H]1CN(c2ccc(N3CCN(c4cc5c(cc4F)c(=O)c(C(=O)O)cn5C4CC4)CC3)c(F)c2)C(=O)O1 (stereo in doubt) [Example 1, 7-(4-{4-[5-(acetylamino-methyl)-2-oxo-oxazolidin-3-yl]-2-fluoro-phenyl}-piperazin-1-yl)-1-cyclopropyl-6-fluoro-4-oxo-1,4-dihydro-quinoline-3-carboxylic acid] | 315 to 320 °C (dec.) | – | – | – | – | – |
| O=C(O)c1cn(C2CC2)c2cc(N3CCNCC3)c(F)cc2c1=O [ciprofloxacin] | – | 0.25 to 32 | 0.5 to 32 | 0.125 to 1 | 0.5 to 32 | 1 to 4 |
| CC(=O)NC[C@H]1CN(c2ccc(N3CCN(c4c(F)cc5c(=O)c(C(=O)O)cn6c5c4OCC6C)CC3)c(F)c2)C(=O)O1 (stereo partly drawn) [Example 2, 9-(4-{4-[5-(acetylamino-methyl)-2-oxo-oxazolidin-3-yl]-2-fluoro-phenyl}-piperazin-1-yl)-8-fluoro-3-methyl-6-oxo-2,3-dihydro-6H-1-oxa-3a-aza-phenalene-5-carboxylic acid] | 258 °C (dec.) | – | – | – | – | – |
| CC(=O)NC[C@H]1CN(c2ccc(N3CCOCC3)c(F)c2)C(=O)O1 [linezolid] | – | 1 to 2 | 0.5 to 2 | 1 to 2 | 1 to 2 | 0.125 to 1 |
